Results published in ChEMBL document CHEMBL1240295, “Specificity and mechanism of action of some commonly used protein kinase inhibitors” (Biochem J, 2000).

How the values were obtained:
[1] = target: T1, Serine/threonine-protein kinase Chk1 (Homo sapiens) (UniProt O14757); conditions: at 10 µM
T1 sequence (whole entry): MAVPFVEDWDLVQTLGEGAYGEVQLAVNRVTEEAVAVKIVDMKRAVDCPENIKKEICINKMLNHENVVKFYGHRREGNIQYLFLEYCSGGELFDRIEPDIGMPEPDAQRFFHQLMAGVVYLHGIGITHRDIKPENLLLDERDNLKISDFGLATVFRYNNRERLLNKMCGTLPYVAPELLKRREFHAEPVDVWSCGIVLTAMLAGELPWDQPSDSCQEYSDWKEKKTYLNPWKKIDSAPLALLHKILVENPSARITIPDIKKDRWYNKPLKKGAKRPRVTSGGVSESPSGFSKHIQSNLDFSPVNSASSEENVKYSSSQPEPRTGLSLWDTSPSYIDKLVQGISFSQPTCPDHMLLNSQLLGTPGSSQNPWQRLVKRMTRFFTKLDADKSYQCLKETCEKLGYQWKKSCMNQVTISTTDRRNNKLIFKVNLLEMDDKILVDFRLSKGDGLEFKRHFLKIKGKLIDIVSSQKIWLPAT
Description: Inhibition of His-tagged human CHK1 expressed in Escherichia coli at 10 uM

[2] = target: T2, Ribosomal protein S6 kinase beta-1 (Homo sapiens, UniProt P23443); conditions: at 10 µM
T2 sequence (P23443 whole entry, looked up): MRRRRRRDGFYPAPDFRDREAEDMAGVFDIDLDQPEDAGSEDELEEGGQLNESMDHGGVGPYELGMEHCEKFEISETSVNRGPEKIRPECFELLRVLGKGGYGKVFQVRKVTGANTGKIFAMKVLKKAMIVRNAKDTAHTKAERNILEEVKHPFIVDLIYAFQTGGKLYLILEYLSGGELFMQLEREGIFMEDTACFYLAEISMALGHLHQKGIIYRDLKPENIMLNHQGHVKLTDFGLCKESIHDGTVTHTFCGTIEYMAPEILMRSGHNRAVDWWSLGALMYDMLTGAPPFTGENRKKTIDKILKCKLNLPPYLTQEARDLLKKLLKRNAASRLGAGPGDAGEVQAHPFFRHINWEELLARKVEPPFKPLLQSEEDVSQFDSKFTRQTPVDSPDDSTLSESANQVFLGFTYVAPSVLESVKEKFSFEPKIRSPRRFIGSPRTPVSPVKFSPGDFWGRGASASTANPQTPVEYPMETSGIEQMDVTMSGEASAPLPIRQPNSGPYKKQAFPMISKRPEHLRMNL
Description: Inhibition of His-tagged human S6K1 expressed in Escherichia coli at 10 uM

Oryctolagus cuniculus [3] = organism: Oryctolagus cuniculus; conditions: at 10 µM
Description: Inhibition of rabbit MKK1 expressed in Escherichia coli at 10 uM

[4] = target: Myosin light chain kinase, smooth muscle (Gallus gallus) (UniProt P11799); assay: Inhibition of chicken SmMLCK expressed in Escherichia coli at 10 uM; conditions: Ovis aries
Rattus norvegicus [5] = organism: Rattus norvegicus; conditions: at 10 µM
Description: Inhibition of rat liver AMPK at 10 uM

[6] = target: Rho-associated protein kinase 2 (Rattus norvegicus) (UniProt Q62868); conditions: Sf9, at 10 µM
Chain of Rho-associated protein kinase 2 (Rattus norvegicus) (Q62868 whole entry, looked up): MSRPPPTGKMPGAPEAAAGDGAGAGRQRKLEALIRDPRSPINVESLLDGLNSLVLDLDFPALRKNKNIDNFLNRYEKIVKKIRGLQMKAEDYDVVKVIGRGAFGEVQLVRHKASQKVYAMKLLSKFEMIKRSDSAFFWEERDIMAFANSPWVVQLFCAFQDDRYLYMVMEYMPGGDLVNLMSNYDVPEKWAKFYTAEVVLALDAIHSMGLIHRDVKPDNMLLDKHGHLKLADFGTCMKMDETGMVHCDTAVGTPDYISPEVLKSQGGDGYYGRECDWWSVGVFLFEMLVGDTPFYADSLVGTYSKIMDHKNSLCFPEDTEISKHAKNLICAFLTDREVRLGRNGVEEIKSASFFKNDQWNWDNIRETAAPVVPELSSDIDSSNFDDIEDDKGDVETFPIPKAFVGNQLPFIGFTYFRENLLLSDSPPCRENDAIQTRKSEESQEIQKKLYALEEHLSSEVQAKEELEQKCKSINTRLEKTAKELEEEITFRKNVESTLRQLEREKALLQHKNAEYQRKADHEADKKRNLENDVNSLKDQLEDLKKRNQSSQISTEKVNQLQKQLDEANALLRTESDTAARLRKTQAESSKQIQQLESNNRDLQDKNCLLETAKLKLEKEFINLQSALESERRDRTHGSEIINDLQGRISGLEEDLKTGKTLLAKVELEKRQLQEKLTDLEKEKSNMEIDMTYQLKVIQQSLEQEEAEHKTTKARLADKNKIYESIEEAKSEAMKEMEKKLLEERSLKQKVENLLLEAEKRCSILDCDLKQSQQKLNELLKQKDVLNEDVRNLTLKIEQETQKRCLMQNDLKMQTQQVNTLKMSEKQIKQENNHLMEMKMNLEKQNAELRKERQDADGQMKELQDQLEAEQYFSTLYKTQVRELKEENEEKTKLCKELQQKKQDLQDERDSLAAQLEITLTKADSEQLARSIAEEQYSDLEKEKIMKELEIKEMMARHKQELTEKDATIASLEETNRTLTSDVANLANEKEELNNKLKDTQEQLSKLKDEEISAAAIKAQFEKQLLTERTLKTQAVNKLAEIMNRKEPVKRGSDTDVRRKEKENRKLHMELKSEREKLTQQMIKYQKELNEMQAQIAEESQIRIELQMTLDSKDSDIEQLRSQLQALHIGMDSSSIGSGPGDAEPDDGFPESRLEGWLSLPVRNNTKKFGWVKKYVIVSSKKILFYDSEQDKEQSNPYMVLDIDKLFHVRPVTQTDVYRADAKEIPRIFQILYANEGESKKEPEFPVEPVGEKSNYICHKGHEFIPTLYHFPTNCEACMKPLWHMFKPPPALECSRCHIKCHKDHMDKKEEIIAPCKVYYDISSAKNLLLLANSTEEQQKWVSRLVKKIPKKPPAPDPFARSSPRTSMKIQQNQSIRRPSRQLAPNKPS
Description: Inhibition of rat ROCK2 expressed in Sf9 cells at 10 uM

[7] = target: Mitogen-activated protein kinase 11 (Homo sapiens) (UniProt Q15759); conditions: at 10 µM
Description: Inhibition of Gst-tagged human SAPK2b/p38--beta-2 expressed in Escherichia coli at 10 uM

[8] = target: T3, MAP kinase-activated protein kinase 2 (Homo sapiens, UniProt P49137); conditions: at 10 µM
T3 sequence (P49137 whole entry, looked up): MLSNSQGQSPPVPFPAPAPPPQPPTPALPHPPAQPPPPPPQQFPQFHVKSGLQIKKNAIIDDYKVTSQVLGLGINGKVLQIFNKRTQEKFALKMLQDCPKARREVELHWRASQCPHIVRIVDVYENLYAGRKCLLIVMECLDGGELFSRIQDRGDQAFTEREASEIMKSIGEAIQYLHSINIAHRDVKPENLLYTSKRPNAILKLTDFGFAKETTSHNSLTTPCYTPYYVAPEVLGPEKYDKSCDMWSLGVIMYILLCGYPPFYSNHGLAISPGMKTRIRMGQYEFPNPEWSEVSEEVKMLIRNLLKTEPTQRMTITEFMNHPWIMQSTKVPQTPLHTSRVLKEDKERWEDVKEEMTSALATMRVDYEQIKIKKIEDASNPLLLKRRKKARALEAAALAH
Description: Inhibition of Gst-tagged human MAPKAPK2 expressed in Escherichia coli at 10 uM

[9] = target: Mitogen-activated protein kinase 1 (Homo sapiens) (UniProt P28482); conditions: at 10 µM
Chain of Mitogen-activated protein kinase 1 (Homo sapiens) (P28482 whole entry): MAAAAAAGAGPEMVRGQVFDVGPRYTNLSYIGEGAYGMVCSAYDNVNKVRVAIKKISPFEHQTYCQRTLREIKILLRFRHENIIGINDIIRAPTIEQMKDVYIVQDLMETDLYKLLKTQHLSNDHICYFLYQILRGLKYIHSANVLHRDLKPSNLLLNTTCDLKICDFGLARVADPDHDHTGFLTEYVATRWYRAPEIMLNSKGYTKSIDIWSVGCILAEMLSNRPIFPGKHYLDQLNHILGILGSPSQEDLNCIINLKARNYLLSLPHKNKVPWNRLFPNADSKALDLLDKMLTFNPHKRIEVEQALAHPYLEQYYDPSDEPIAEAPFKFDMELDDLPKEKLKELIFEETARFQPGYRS
Description: Inhibition of Gst-tagged human MAPK2/ERK2 expressed in Escherichia coli at 10 uM

[10] = target: RAC-alpha serine/threonine-protein kinase (Homo sapiens) (UniProt P31749); conditions: Sf9, at 10 µM
Chain of RAC-alpha serine/threonine-protein kinase (Homo sapiens) (P31749 whole entry): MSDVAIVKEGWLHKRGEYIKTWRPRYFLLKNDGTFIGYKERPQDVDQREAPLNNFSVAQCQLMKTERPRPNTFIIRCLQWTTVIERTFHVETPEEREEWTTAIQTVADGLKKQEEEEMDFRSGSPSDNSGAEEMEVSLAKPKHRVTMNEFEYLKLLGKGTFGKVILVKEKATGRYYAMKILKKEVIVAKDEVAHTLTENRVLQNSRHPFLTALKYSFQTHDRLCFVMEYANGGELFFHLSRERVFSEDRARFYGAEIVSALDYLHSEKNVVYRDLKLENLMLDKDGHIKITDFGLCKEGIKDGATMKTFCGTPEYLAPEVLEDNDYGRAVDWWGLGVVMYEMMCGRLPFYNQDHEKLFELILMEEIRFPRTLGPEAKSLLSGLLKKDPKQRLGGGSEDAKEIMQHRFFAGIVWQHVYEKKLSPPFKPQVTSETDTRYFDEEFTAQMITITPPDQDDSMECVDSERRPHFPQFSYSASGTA
Description: Inhibition of human PKBalpha expressed in SF9 cells at 10 uM

[11] = target: Mitogen-activated protein kinase 8 (Homo sapiens) (UniProt P45983); conditions: at 10 µM
Chain of Mitogen-activated protein kinase 8 (Homo sapiens) (P45983 whole entry): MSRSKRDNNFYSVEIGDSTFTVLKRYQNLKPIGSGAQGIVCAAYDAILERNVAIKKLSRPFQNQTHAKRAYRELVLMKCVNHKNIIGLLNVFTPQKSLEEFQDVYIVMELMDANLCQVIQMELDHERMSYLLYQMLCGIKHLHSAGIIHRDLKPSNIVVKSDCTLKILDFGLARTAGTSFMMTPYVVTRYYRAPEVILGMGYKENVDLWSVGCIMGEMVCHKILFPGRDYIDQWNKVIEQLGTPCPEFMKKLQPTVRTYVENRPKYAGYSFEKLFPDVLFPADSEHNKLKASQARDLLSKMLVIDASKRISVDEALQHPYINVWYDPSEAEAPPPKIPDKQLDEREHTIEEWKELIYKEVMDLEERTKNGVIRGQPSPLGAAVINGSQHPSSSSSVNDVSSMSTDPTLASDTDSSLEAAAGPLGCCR
Description: Inhibition of Gst-tagged human JNK1a1 expressed in Escherichia coli at 10 uM

[12] = target: T4, MAP kinase-activated protein kinase 5 (Homo sapiens) (UniProt Q8IW41); conditions: Sf9, at 10 µM
T4 sequence (whole entry): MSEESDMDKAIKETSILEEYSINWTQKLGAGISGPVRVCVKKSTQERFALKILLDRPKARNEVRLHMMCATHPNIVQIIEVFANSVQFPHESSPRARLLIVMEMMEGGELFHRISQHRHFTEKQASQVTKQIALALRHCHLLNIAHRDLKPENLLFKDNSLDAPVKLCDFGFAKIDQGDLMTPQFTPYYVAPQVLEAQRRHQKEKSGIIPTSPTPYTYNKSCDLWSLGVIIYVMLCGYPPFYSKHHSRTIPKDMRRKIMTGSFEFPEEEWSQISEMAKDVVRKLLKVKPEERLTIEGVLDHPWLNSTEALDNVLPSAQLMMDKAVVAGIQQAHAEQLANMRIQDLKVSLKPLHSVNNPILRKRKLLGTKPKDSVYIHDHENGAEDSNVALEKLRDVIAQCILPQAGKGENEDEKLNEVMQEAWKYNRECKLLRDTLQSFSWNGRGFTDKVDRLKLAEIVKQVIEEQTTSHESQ
Description: Inhibition of His-tagged human PRAK expressed in Sf9 cells at 10 uM

[13] = target: 3-phosphoinositide-dependent protein kinase 1 (Homo sapiens) (UniProt O15530); conditions: Sf21, at 10 µM
[14] = target: T5, Casein kinase II (Homo sapiens) (UniProt P67870+P68400+P19784); conditions: Sf9, at 10 µM
Description: Inhibition of His-tagged human CK2 expressed in Sf9 cells at 10 uM

[15] = target: T6, Mitogen-activated protein kinase 13 (Homo sapiens) (UniProt O15264); conditions: at 10 µM
T6 sequence (whole entry): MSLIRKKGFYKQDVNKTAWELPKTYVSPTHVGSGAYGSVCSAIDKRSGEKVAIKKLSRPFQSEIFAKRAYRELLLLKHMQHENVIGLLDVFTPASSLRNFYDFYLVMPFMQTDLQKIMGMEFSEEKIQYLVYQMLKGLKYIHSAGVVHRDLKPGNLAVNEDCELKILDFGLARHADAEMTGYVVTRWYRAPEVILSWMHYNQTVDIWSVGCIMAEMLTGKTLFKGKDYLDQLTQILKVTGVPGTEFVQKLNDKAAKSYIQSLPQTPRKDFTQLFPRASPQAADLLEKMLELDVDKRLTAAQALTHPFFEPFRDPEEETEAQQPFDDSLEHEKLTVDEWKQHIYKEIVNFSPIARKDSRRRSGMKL
Description: Inhibition of Gst-tagged human SAPK4/p38delta expressed in Escherichia coli at 10 uM

Homo sapiens = organism: Homo sapiens; assay: Inhibition of His-tagged human CAMK2 expressed in Escherichia coli at 10 uM
[16] = target: T7, Serine/threonine-protein kinase Sgk1 (Homo sapiens) (UniProt O00141); conditions: Sf9, at 10 µM
T7 sequence (whole entry): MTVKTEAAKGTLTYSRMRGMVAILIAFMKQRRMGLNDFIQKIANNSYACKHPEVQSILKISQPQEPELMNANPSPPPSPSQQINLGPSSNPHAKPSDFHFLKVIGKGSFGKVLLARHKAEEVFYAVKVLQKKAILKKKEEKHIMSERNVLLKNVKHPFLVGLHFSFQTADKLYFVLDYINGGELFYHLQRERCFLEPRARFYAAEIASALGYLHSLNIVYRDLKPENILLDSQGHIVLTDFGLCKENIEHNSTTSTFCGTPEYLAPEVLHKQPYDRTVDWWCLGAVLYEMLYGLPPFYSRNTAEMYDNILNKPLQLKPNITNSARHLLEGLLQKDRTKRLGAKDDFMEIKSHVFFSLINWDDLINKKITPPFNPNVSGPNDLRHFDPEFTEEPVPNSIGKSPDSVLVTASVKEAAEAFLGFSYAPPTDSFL
Description: Inhibition of His-tagged human SGK expressed in Sf9 cells at 10 uM

[17] = Inhibition of His-tagged human CAMK2 expressed in Escherichia coli
Bos taurus [18] = organism: Bos taurus; conditions: at 10 µM
Description: Inhibition of bovine heart PKA at 10 uM

Oryctolagus cuniculus [19] = organism: Oryctolagus cuniculus; conditions: Muscle tissue, at 10 µM
Description: Inhibition of PHK from rabbit skeletal muscle at 10 uM

[20] = target: T8, Glycogen synthase kinase-3 beta (Homo sapiens, UniProt P49841); conditions: Sf21, at 10 µM
T8 sequence (P49841 whole entry, looked up): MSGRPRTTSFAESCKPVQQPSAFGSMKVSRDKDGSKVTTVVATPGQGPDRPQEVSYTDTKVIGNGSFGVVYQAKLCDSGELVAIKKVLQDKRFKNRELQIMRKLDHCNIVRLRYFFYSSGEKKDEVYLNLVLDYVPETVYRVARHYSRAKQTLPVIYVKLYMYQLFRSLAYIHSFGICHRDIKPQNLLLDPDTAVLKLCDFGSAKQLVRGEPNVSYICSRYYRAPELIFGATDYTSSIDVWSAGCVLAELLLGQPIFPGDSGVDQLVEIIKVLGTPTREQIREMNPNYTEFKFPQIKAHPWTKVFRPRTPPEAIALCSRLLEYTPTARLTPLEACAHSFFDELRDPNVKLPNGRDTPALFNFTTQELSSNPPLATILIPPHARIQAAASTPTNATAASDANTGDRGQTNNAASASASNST
Description: Inhibition of His-tagged human GSK3b expressed in Sf21 cells at 10 uM

[21] = target: T9, Ribosomal protein S6 kinase alpha-5 (Homo sapiens, UniProt O75582); conditions: Sf9, at 10 µM
T9 sequence (O75582 whole entry, looked up): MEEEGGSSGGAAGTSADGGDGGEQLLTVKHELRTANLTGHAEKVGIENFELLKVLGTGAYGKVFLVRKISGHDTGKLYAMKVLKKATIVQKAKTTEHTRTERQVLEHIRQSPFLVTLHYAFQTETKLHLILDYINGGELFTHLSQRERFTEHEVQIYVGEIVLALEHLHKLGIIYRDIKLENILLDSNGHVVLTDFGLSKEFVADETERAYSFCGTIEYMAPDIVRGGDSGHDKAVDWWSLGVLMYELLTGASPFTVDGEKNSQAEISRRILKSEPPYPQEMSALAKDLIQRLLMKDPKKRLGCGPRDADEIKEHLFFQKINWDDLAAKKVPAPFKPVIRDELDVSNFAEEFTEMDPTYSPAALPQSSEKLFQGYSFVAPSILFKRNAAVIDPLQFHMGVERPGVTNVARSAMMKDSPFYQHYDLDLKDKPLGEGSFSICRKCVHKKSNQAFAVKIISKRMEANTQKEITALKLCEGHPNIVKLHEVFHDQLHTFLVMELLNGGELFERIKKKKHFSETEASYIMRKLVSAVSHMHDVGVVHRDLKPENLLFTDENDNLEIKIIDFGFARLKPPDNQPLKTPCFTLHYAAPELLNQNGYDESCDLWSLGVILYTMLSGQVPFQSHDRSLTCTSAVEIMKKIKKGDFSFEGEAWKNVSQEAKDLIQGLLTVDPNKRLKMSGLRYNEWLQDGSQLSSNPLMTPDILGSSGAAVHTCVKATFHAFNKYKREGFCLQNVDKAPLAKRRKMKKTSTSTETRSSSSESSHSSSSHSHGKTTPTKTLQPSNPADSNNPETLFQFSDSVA
Description: Inhibition of His-tagged human MSK1 expressed in Sf9 cells at 10 uM

[22] = target: Tyrosine-protein kinase Lck (Homo sapiens) (UniProt P06239); conditions: Sf9, at 10 µM
Description: Inhibition of His-tagged human LCK expressed in Sf9 cells at 10 uM

Oryctolagus cuniculus [23] = organism: Oryctolagus cuniculus; conditions: Muscle tissue, at 10 µM; remark: listed apart in the source
Description: Inhibition of MAPKAPK1b from rabbit skeletal muscle at 10 uM

[24] = target: T3, MAP kinase-activated protein kinase 2; assay: Inhibition of His-tagged human MAPKAPK2 expressed in Escherichia coli at 50 uM; values are per cent of control
[25] = target: T5, Casein kinase II (Homo sapiens); assay: Inhibition of His-tagged human CK2 expressed in Sf9 cells at 50 uM; values are per cent of control
Oryctolagus cuniculus [26] = organism: Oryctolagus cuniculus; assay: Inhibition of MAPKAPK1b from rabbit skeletal muscle at 50 uM; values are per cent of control; conditions: Muscle tissue
[27] = target: Phosphatidylinositol 4,5-bisphosphate 3-kinase catalytic subunit alpha isoform (Bos taurus) (UniProt P32871); conditions: Sf9, 50 uM
Description: Inhibition of His-tagged bovine PI3K expressed in Sf9 cells at 50 uM

[28] = target: Mitogen-activated protein kinase 11 (Homo sapiens) (UniProt Q15759); assay: Inhibition of His-tagged human SAPK2b/p38b2 expressed in Escherichia coli at 50 uM; values are per cent of control
[29] = target: T1, Serine/threonine-protein kinase Chk1 (Homo sapiens); assay: Inhibition of His-tagged human CHK1 expressed in Escherichia coli at 50 uM; values are per cent of control
Oryctolagus cuniculus [30] = organism: Oryctolagus cuniculus; assay: Inhibition of PHK from rabbit skeletal muscle at 50 uM; values are per cent of control; conditions: Muscle tissue
[31] = target: T7, Serine/threonine-protein kinase Sgk1 (Homo sapiens); assay: Inhibition of His-tagged human SGK expressed in Sf9 cells at 50 uM; values are per cent of control
[32] = target: T4, MAP kinase-activated protein kinase 5 (Homo sapiens); assay: Inhibition of His-tagged human PRAK expressed in Sf9 cells at 50 uM; values are per cent of control
[33] = target: Rho-associated protein kinase 2 (Rattus norvegicus) (UniProt Q62868); assay: Inhibition of rat ROCK2 expressed in Sf9 cells at 50 uM; conditions: values are per cent of control
Oryctolagus cuniculus [34] = organism: Oryctolagus cuniculus; assay: Inhibition of rabbit MKK1 expressed in Escherichia coli at 50 uM; values are per cent of control
[35] = target: RAC-alpha serine/threonine-protein kinase (Homo sapiens) (UniProt P31749); assay: Inhibition of human PKBalpha expressed in SF9 cells at 50 uM; values are per cent of control
[36] = target: T8, Glycogen synthase kinase-3 beta; assay: Inhibition of His-tagged human GSK3b expressed in Sf21 cells at 50 uM; values are per cent of control
[37] = target: T9, Ribosomal protein S6 kinase alpha-5; assay: Inhibition of His-tagged human MSK1 expressed in Sf9 cells at 50 uM; values are per cent of control
[38] = target: Mitogen-activated protein kinase 8 (Homo sapiens) (UniProt P45983); assay: Inhibition of His-tagged human JNK1a1/SAPK1c expressed in Escherichia coli at 50 uM; values are per cent of control
[39] = target: T2, Ribosomal protein S6 kinase beta-1; assay: Inhibition of His-tagged human S6K1 expressed in Escherichia coli at 50 uM; values are per cent of control
[40] = target: T6, Mitogen-activated protein kinase 13 (Homo sapiens); assay: Inhibition of His-tagged human SAPK4/p38delta expressed in Escherichia coli at 50 uM; values are per cent of control
[41] = target: Protein kinase C alpha type (Homo sapiens, UniProt P17252); assay: Inhibition of His-tagged human PKCalpha expressed in Escherichia coli at 50 uM; values are per cent of control
[42] = target: [Pyruvate dehydrogenase (acetyl-transferring)] kinase isozyme 1, mitochondrial (Homo sapiens) (UniProt Q15118); assay: Inhibition of His-tagged human PDK1 expressed in Sf21 cells at 50 uM; conditions: values are per cent of control
Casein kinase II = Casein kinase II (Homo sapiens, UniProt P19784+P67870+P68400); assay: Inhibition of His-tagged human CK2 expressed in Sf9 cells
[43] = target: Mitogen-activated protein kinase 1 (Homo sapiens) (UniProt P28482); assay: Inhibition of His-tagged human MAPK2/ERK2 expressed in Escherichia coli at 50 uM; values are per cent of control
Bos taurus [44] = organism: Bos taurus; assay: Inhibition of bovine heart PKA at 50 uM; values are per cent of control
Rattus norvegicus [45] = organism: Rattus norvegicus; assay: Inhibition of rat liver AMPK at 50 uM; values are per cent of control

Work on CN([C@@H](Cc1ccc(OS(=O)(=O)c2cccc3cnccc23)cc1)C(=O)N1CCN(c2ccccc2)CC1)S(=O)(=O)c1cccc2cnccc12 yielded a residual activity [1] of 104%, a residual activity [2] of 93% and a residual activity (Oryctolagus cuniculus [3]) of 101%. For the same compound, the inhibition [4] was 96%, the residual activity (Rattus norvegicus [5]) was 97% and the residual activity [6] was 88%. For the same compound, the residual activity [7] was 98%, the residual activity [8] was 59% and the residual activity [9] was 92%. It also gave a residual activity [10] of 67%, a residual activity [11] of 104% and a residual activity [12] of 36%. The residual activity [13] was 70%, the residual activity [14] was 103% and the residual activity [15] was 110%. The inhibition (Homo sapiens) was 0%, the residual activity [16] was 78% and the IC50 [17] was 0.5 µM. It also gave a residual activity (Bos taurus [18]) of 94%, a level, % of control (Oryctolagus cuniculus [19]) of 106% and a residual activity [20] of 38%. The residual activity [21] was 81%, the residual activity [22] was 92% and the level, % of control (Oryctolagus cuniculus [23]) was 89%.
Work on O=c1cc(N2CCOCC2)oc2c(-c3ccccc3)cccc12 [LY-294002] yielded a residual activity [24] of 74%, a residual activity [25] of 18% and a level, % of control (Oryctolagus cuniculus [26]) of 70%. For the same compound, the residual activity [27] was 13%, the residual activity [28] was 98% and the residual activity [29] was 90%. For the same compound, the level, % of control (Oryctolagus cuniculus [30]) was 44%, the residual activity [31] was 72% and the residual activity [32] was 68%. It also gave a residual activity [33] of 104%, a residual activity (Oryctolagus cuniculus [34]) of 101% and a residual activity [35] of 60%. The residual activity [36] was 53%, the residual activity [37] was 83% and the residual activity [38] was 108%. It also gave a residual activity [39] of 81%, a residual activity [40] of 94% and a residual activity [41] of 91%. It also gave a residual activity [42] of 76%, an IC50 (Casein kinase II) of 6.9 µM and a residual activity [43] of 114%. For the same compound, the residual activity (Bos taurus [44]) was 91% and the residual activity (Rattus norvegicus [45]) was 103%.
